Results: ChEMBL document CHEMBL4825686, “HTS-based discovery and optimization of novel positive allosteric modulators of the α7 nicotinic acetylcholine receptor” (Eur J Med Chem, 2021)
In brackets after ≈: the same amount, converted by molar mass. One block for each compound: values may come before it.

Tests used:
[1] = biological target: T1, Neuronal acetylcholine receptor subunit alpha-7 (Homo sapiens, UniProt P36544); test: Positive allosteric modulator activity at human alpha7 nAChR expressed in Flp-In-HEK293 cells co-expressing RIC-3 assessed as potentiation of PNU282987-induced calcium influx measured after 10 mins by FLIPR assay; assay type: cell-based, Flp-In-293
[2] = biological target: T1, Neuronal acetylcholine receptor subunit alpha-7; test: Positive allosteric modulator activity at human alpha7 nAChR expressed in Flp-In-HEK293 cells co-expressing RIC-3 assessed as potentiation of PNU282987-induced calcium influx at 10 uM measured after 10 mins by FLIPR assay; assay type: cell-based
[3] = Metabolic stability in human liver microsomes assessed as intrinsic clearance at 1 uM measured per mg protein upto 40 mins; assay type: ADME, Microsome; settings: read-out: CLH
[4] = Kinetic solubility of compound; assay type: physicochemical; settings: read-out: Kinetic_solubility
[5] = Mutagenicity in Salmonella typhimurium TA1535 in absence of rat liver S9 fraction by AMES test; assay type: toxicity; settings: salmonella enterica subsp. enterica serovar typhimurium
[6] = Mutagenicity in Salmonella typhimurium TA1537 in absence of rat liver S9 fraction by AMES test; assay type: toxicity; settings: salmonella enterica subsp. enterica serovar typhimurium
[7] = Metabolic stability in NMRI mouse liver microsomes assessed as intrinsic clearance at 1 uM measured per mg protein upto 40 mins; assay type: ADME, Microsome; settings: read-out: CLH
[8] = Mutagenicity in Salmonella typhimurium TA98 in absence of rat liver S9 fraction by AMES test; assay type: toxicity; settings: salmonella enterica subsp. enterica serovar typhimurium
[9] = Mutagenicity in Salmonella typhimurium TA1535 in presence of rat liver S9 fraction by AMES test; assay type: toxicity, subcellular; settings: salmonella enterica subsp. enterica serovar typhimurium
[10] = Mutagenicity in Escherichia coli WP2 uvrA in presence of rat liver S9 fraction by AMES test; assay type: toxicity, subcellular
[11] = Mutagenicity in Escherichia coli WP2 uvrA in absence of rat liver S9 fraction by AMES test; assay type: toxicity
[12] = Mutagenicity in Salmonella typhimurium TA100 in absence of rat liver S9 fraction by AMES test; assay type: toxicity; settings: salmonella enterica subsp. enterica serovar typhimurium
[13] = Mutagenicity in Salmonella typhimurium TA98 in presence of rat liver S9 fraction by AMES test; assay type: toxicity, subcellular; settings: salmonella enterica subsp. enterica serovar typhimurium
[14] = Mutagenicity in Salmonella typhimurium TA1537 in presence of rat liver S9 fraction by AMES test; assay type: toxicity, subcellular; settings: salmonella enterica subsp. enterica serovar typhimurium
[15] = Metabolic stability in Wistar rat liver microsomes assessed as intrinsic clearance at 1 uM measured per mg protein upto 40 mins; assay type: ADME, Microsome; settings: read-out: CLH
[16] = Mutagenicity in Salmonella typhimurium TA100 in presence of rat liver S9 fraction by AMES test; assay type: toxicity, subcellular; settings: salmonella enterica subsp. enterica serovar typhimurium
[17] = Flp-In-293, filed as positive allosteric modulator

T1 sequence (P36544 whole entry): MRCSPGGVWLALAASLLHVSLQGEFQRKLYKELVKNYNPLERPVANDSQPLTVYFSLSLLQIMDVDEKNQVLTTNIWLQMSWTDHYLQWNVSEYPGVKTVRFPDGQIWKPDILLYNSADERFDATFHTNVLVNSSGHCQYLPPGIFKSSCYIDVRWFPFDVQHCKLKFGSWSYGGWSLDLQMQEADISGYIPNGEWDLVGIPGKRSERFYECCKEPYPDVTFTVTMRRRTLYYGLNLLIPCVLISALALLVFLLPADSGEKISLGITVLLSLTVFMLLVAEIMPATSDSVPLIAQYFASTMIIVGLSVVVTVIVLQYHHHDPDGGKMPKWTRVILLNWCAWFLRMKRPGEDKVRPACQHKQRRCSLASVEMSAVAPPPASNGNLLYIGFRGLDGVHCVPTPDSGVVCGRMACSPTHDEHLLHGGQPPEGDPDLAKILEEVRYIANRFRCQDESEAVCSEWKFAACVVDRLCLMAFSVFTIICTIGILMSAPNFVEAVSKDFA

Compound: Cc1ccc(CN2CCN(C(=O)C(=O)Nc3ccc4[nH]c(C)c(C)c4c3)CC2)cc1
Activity ([2]; Flp-In-293): 10% | microsomal CLint at 1 µM [3]: 13 µL/min/mg | solubility kinetic [4]: 23 µM (≈ 9.3 µg/mL) | Activity [5]: Toxic | Activity [6]: Toxic | microsomal CLint at 1 µM [7]: 151 µL/min/mg | Activity [8]: Toxic | Activity [9]: Toxic | Activity [10]: Toxic | Activity [11]: Toxic | Activity [12]: Toxic | Activity [13]: Toxic | Activity [14]: Toxic | microsomal CLint at 1 µM [15]: 56 µL/min/mg | Activity [16]: Toxic

Compound: Cc1ccc(CN2CCN(C(=O)C(=O)Nc3cc4ccn(C)c4cc3F)CC2)cc1
solubility kinetic [4]: 47.1 µM (≈ 19.2 µg/mL) | Activity [5]: Toxic | Activity [6]: Toxic | Activity [8]: Toxic | EC50 ([1]; read-out: EC50): 900 nM | Activity [9]: Toxic | Activity [10]: Toxic | Activity [11]: Toxic | Activity [12]: Toxic | Activity [13]: Toxic | Activity [14]: Toxic | Activity [16]: Toxic

Compound: Cc1ccc(CN2CCCC(C(=O)NCc3ccc4c(ccn4C)c3)C2)cc1 (centres undefined)
EC50 ([1]; flp-in-293): Not Active

Compound: Cn1ccc2cc(NC(=O)C(=O)c3cnn(Cc4ccc(Cl)cc4)c3)ccc21
Activity [2, 17]: 52% | solubility kinetic [4]: 3 µM (≈ 1.18 µg/mL)

Compound: Cn1ccc2cc(CNC(=O)N3CC(COc4ccc(OC(F)(F)F)cc4)C3)ccc21
EC50 ([1]; read-out: EC50): 25 nM

Compound: Cc1ccc(CN2CCC(NC(=O)Nc3ccc4c(ccn4C)c3)CC2)cc1
EC50 ([1]; flp-in-293): Not Active

Compound: Cc1ccc(CN2CCC(C(=O)NCc3ccc4c(ccn4C)c3)CC2)cc1
Activity ([2]; Flp-In-293): 12%

Compound: Cc1ccc(O[C@H]2CC[C@H](C(=O)C(=O)Nc3ccc4c(ccn4C)c3)CC2)cn1
EC50 ([1]; read-out: EC50): 670 nM

Compound: Cc1ccc(CN2CCN(C(=O)C(=O)Cc3ccc4c(ccn4C)c3)CC2)cc1
Activity ([2]; Flp-In-293): 7%

Compound: Cc1ccc(CN2C[C@@H](C)N(C(=O)C(=O)Nc3ccc4[nH]ccc4c3)C[C@@H]2C)cc1
microsomal CLint at 1 µM [3]: 2 µL/min/mg | solubility kinetic [4]: 14.9 µM (≈ 6.03 µg/mL) | EC50 ([1]; flp-in-293): Not Active

Compound: Cc1ccc(Oc2ccc(C(=O)NCc3ccc4c(ccn4C)c3)cc2)cc1
EC50 ([1]; read-out: EC50): 40 nM

Compound: Cc1ccc(CN2CCN(C(=O)NCc3ccc4c(ccn4C)c3)CC2)cc1
microsomal CLint at 1 µM [3]: 24 µL/min/mg | solubility kinetic [4]: 18.9 µM (≈ 7.12 µg/mL) | EC50 ([1]; read-out: EC50): 490 nM

Compound: Cc1ccc(OC2CCN(C(=O)C(=O)Nc3ccc4[nH]ccc4c3)CC2)cc1
EC50 ([1]; read-out: EC50): 260 nM

Compound: Cc1ccc(CN2CCN(C(=O)C(=O)Nc3ccc4c(F)cn(C)c4c3)CC2)cc1
solubility kinetic [4]: 12.5 µM (≈ 5.11 µg/mL) | Activity [5]: Toxic | Activity [6]: Toxic | Activity [8]: Toxic | EC50 ([1]; read-out: EC50): 1400 nM | Activity [9]: Toxic | Activity [10]: Toxic | Activity [11]: Toxic | Activity [12]: Toxic | Activity [13]: Toxic | Activity [14]: Toxic | Activity [16]: Toxic

Second part, the compound after the results:

EC50 ([1]; read-out: EC50): 3000 nM
Compound: Cc1ccc(OCC2CN(C(=O)C(=O)Nc3ccc4c(ccn4C)c3)C2)cc1

EC50 ([1]; read-out: EC50): 220 nM
Compound: Cn1ccc2cc(CNC(=O)N3CC(COc4ccc(F)cc4)C3)ccc21

EC50 ([1]; read-out: EC50): 350 nM
Compound: Cn1ccc2cc(CNC(=O)N3CC(COc4ccc(C#N)cc4)C3)ccc21

EC50 ([1]; read-out: EC50): 80 nM
Compound: Cn1ccc2cc(CNC(=O)N3CC(COc4ccc(C(F)(F)F)cc4)C3)ccc21

Activity [2, 17]: 47%
Compound: Cc1ccc(OC2CN(C(=O)C(=O)Nc3ccc4c(ccn4C)c3)C2)cc1

EC50 ([1]; read-out: EC50): 170 nM
Compound: Cc1ccc(OC2CCN(C(=O)NCc3ccc4c(ccn4C)c3)C2)cc1 (centres undefined)

EC50 ([1]; read-out: EC50): 60 nM
Compound: COc1ccc(OCC2CN(C(=O)NCc3ccc4c(ccn4C)c3)C2)cc1

EC50 ([1]; read-out: EC50): 55 nM
Compound: Cn1ccc2cc(CNC(=O)N3CC(COc4ccc(Cl)cc4)C3)ccc21

microsomal CLint at 1 µM [3]: 34 µL/min/mg | solubility kinetic [4]: 2 µM (≈ 0.769 µg/mL) | microsomal CLint at 1 µM [7]: 46 µL/min/mg | EC50 ([1]; read-out: EC50): 60 nM | microsomal CLint at 1 µM [15]: 48 µL/min/mg
Compound: Cc1ccc(Oc2ccc(C(=O)C(=O)Nc3ccc4c(ccn4C)c3)cc2)cc1

EC50 ([1]; read-out: EC50): 620 nM
Compound: Cc1ccc(OC2CN(C(=O)NCc3ccc4c(ccn4C)c3)C2)cc1
